Laboratory results taken from paper PMC5818615, “Use of HuH6 and other human-derived hepatoma lines for the detection of genotoxins: a new hope for laboratory animals?” (Archives of Toxicology, 2017).
Where two headings read alike, the source gives them in different places.

Tests used:
[1] = test system: primary human hepatocytes; conditions: ref Wilkening et al. [2003]; cited from earlier work
SK-Hep1 cells = conditions: 48 h
Description: (§1) The SCGE experiments were conducted as described in an international guideline (Tice et al. [2000]). Reagents for the assays (lysis solution and alkaline electrophoresis buffer) and agarose-coated slides were prepared according to Collins and Dusinska ([2009]).
(§2) Briefly, cells were sub-cultured in 1.0 ml medium in 24–well tissue-culture plates (Sarstedt Inc., Newton, NC, USA). After 24 h, the media were changed and the cells exposed to different concentrations of the test compounds or to the solvent controls (PBS or DMSO). […] To terminate the treatment, the cells were washed twice with PBS (1.0 ml), trypsinized (100 µl T/E per well, 4 min) and then resuspended in 400 µl culture medium containing FBS. Subsequently, the suspensions were transferred to Eppendorf tubes and centrifuged (200g, 5 min). Cell pellets were resuspended in cold PBS.
(§3) In all experiments, acute toxic effects were determined with a CASY® Cell Counter and Analyzer System (Schärfe-System GmbH, Reutlingen, Germany) (Lindl et al. [2005]). SCGE assays were only performed when the viability of the cultures was ≥ 70% (Koppen et al. [2017]). Per experimental point, two cultures were set up in parallel and from each one slide with two separate gels (30,000 cells/gel) was prepared. After unwinding (40 min, pH > 13) and electrophoresis (30 min, 0.75 V/cm, ~ 300 mA, 4 °C, pH > 13), 50 cells were evaluated per gel (200 cells per experimental point). As an endpoint, we determined the tail intensities (“% DNA in tail”) with a computer-aided system Comet Assay IV (Perceptive Instruments, Bury St Edmunds, UK), which is at present the most widely used parameter (Collins et al. [2008]; Moller [2006]). For each gel, the median of the tail intensity was calculated.

WRL68 cells = conditions: 48 h
Description: as §1, §2, §3

SNU-398 cells = conditions: 48 h
Description: as §1, §2, §3

[2] = test system: human derived liver cell lines; conditions: for Number of the twelve lines sensitive towards the compound: SCGE experiments without exogenous enzyme activation mix
Description: as §1, §2, §3

Hep3B cells = conditions: Hep3B, 48 h
Description: as §1, §2, §3

SNU-449 cells = conditions: 48 h
Description: as §1, §2, §3

PLC/PRF cells = conditions: PLC/PRF, 48 h
Description: as §1, §2, §3

HCC 1.2 cells = conditions: 48 h
Description: as §1, §2, §3

HuH6 cells = conditions: 48 h
Description: as §1, §2, §3

HuH7 cells = conditions: 48 h
Description: as §1, §2, §3

HepG2 cells = conditions: 48 h
Description: as §1, §2, §3

JHH6 cells = conditions: 48 h, control 0.59 ± 0.21
Description: as §1, §2, §3

HepaRG cells = conditions: for Result of SCGE experiments (in words): HepaRG cells; for % DNA in tail: HepaRG, 48 h
Description: as §1, §2, §3

[3] = ref IARC [1993]; cited from earlier work

Cn1c(N)nc2ncc(-c3ccccc3)cc21 [PhIP, 2-amino-1-methyl-6-phenylimidazo[4,5-b]pyridine]
Sensitivity of primary hepatocytes compared with HepG2 [1]: substantially stronger effects
% DNA in tail (SK-Hep1 cells; SK-Hep1, PhIP 50.0 µM, control 2.84 ± 2.06): 5.18 ± 1.19%
% DNA in tail (SK-Hep1 cells; SK-Hep1, PhIP 100.0 µM, control 2.84 ± 2.06): 5.83 ± 1.06%
% DNA in tail (SK-Hep1 cells; SK-Hep1, PhIP 300.0 µM, control 2.84 ± 2.06): 5.77 ± 4.30%
% DNA in tail (WRL68 cells; WRL68, PhIP 50.0 µM, control 2.89 ± 1.16): 5.17 ± 3.21%
% DNA in tail (WRL68 cells; WRL68, PhIP 100.0 µM, control 2.89 ± 1.16): 3.77 ± 1.36%
% DNA in tail (WRL68 cells; WRL68, PhIP 300.0 µM, control 2.89 ± 1.16): 3.39 ± 3.35%
% DNA in tail (SNU-398 cells; SNU-398, PhIP 50.0 µM, control 5.60 ± 3.26): 2.92 ± 1.18%
% DNA in tail (SNU-398 cells; SNU-398, PhIP 100.0 µM, control 5.60 ± 3.26): 7.04 ± 5.97%
% DNA in tail (SNU-398 cells; SNU-398, PhIP 300.0 µM, control 5.60 ± 3.26): 10.3 ± 1.06%
Number of the twelve lines sensitive towards the compound [2]: four
% DNA in tail (Hep3B cells; PhIP 50.0 µM, control 1.56 ± 0.18): 1.43 ± 0.24%
% DNA in tail (Hep3B cells; PhIP 100.0 µM, control 1.56 ± 0.18): 0.82 ± 0.53%
% DNA in tail (SNU-449 cells; SNU-449, PhIP 50.0 µM, control 2.12 ± 0.59): 2.02 ± 0.81%
% DNA in tail (SNU-449 cells; SNU-449, PhIP 100.0 µM, control 2.12 ± 0.59): 3.06 ± 1.08%
% DNA in tail (SNU-449 cells; SNU-449, PhIP 300.0 µM, control 2.12 ± 0.59): 1.17 ± 0.83%
% DNA in tail (PLC/PRF cells; PhIP 50.0 µM, control 3.82 ± 1.22): 2.51 ± 0.56%
% DNA in tail (PLC/PRF cells; PhIP 100.0 µM, control 3.82 ± 1.22): 4.00 ± 3.72%
% DNA in tail (PLC/PRF cells; PhIP 300.0 µM, control 3.82 ± 1.22): 2.43 ± 2.03%
% DNA in tail (HCC 1.2 cells; HCC 1.2, PhIP 50.0 µM, control 6.61 ± 2.14, starred P ≤ 0.05): 17.5 ± 4.84%
% DNA in tail (HCC 1.2 cells; HCC 1.2, PhIP 100.0 µM, control 6.61 ± 2.14, starred P ≤ 0.05): 15.1 ± 2.32%
% DNA in tail (HCC 1.2 cells; HCC 1.2, PhIP 300.0 µM, control 6.61 ± 2.14, starred P ≤ 0.05): 14.8 ± 2.63%
% DNA in tail (HuH6 cells; HuH6, PhIP 50.0 µM, control 1.81 ± 1.15, starred P ≤ 0.05): 11.51 ± 3.64%
% DNA in tail (HuH6 cells; HuH6, PhIP 100.0 µM, control 1.81 ± 1.15, starred P ≤ 0.05): 8.67 ± 2.67%
% DNA in tail (HuH6 cells; HuH6, PhIP 300.0 µM, control 1.81 ± 1.15, starred P ≤ 0.05): 24.7 ± 2.15%
% DNA in tail (HuH7 cells; HuH7, PhIP 50.0 µM, control 5.12 ± 1.05): 5.35 ± 2.84%
% DNA in tail (HuH7 cells; HuH7, PhIP 100.0 µM, control 5.12 ± 1.05): 9.21 ± 2.26%
% DNA in tail (HuH7 cells; HuH7, PhIP 300.0 µM, control 5.12 ± 1.05): 3.55 ± 2.08%
% DNA in tail (HepG2 cells; HepG2, PhIP 50.0 µM, control 2.90 ± 1.03, starred P ≤ 0.05): 6.92 ± 2.00%
% DNA in tail (HepG2 cells; HepG2, PhIP 100.0 µM, control 2.90 ± 1.03, starred P ≤ 0.05): 6.78 ± 1.37%
% DNA in tail (JHH6 cells; JHH6, PhIP 50.0 µM): 0.93 ± 1.09%
% DNA in tail (JHH6 cells; JHH6, PhIP 100.0 µM): 1.44 ± 0.53%
Result of SCGE experiments (in words) (HepaRG cells): detected
% DNA in tail (HepaRG cells; PhIP 50.0 µM, control 0.53 ± 0.66, starred P ≤ 0.05): 4.82 ± 3.57%
% DNA in tail (HepaRG cells; PhIP 100.0 µM, control 0.53 ± 0.66): 2.86 ± 1.73%
IARC classification [3]: Causes guanine adducts that induces tumors at multiple sites in animal models IARC: Group 2B

Cn1c(N)nc2c3cccnc3ccc21 [IQ, 2-amino-3-methyl-3H-imidazo[4,5-f]quinolone]
% DNA in tail (SK-Hep1 cells; SK-Hep1, IQ 50.0 µM, control 0.59 ± 0.24): 0.62 ± 0.47%
% DNA in tail (SK-Hep1 cells; SK-Hep1, IQ 100.0 µM, control 0.59 ± 0.24): 1.43 ± 0.95%
% DNA in tail (WRL68 cells; WRL68, IQ 50.0 µM, control 0.76 ± 0.77): 1.15 ± 1.44%
% DNA in tail (WRL68 cells; WRL68, IQ 100.0 µM, control 0.76 ± 0.77): 0.56 ± 0.67%
% DNA in tail (SNU-398 cells; SNU-398, IQ 50.0 µM, control 1.02 ± 0.88): 1.42 ± 0.72%
% DNA in tail (SNU-398 cells; SNU-398, IQ 100.0 µM, control 1.02 ± 0.88): 1.20 ± 0.81%
Number of the twelve lines sensitive towards the compound [2]: three
Doses required to cause significant effects in SCGE assays ([2]; different hepatic lines, in most cases): ≥ 100 mM
% DNA in tail (Hep3B cells; IQ 50.0 µM, control 0.92 ± 0.58): 0.88 ± 0.71%
% DNA in tail (Hep3B cells; IQ 100.0 µM, control 0.92 ± 0.58): 1.75 ± 1.45%
% DNA in tail (SNU-449 cells; SNU-449, IQ 50.0 µM, control 1.20 ± 1.18): 3.67 ± 2.95%
% DNA in tail (SNU-449 cells; SNU-449, IQ 100.0 µM, control 1.20 ± 1.18): 1.46 ± 1.21%
% DNA in tail (PLC/PRF cells; IQ 50.0 µM, control 2.47 ± 2.08): 5.17 ± 4.50%
% DNA in tail (PLC/PRF cells; IQ 100.0 µM, control 2.47 ± 2.08): 2.84 ± 2.65%
% DNA in tail (HCC 1.2 cells; HCC 1.2, IQ 50.0 µM, control 2.93 ± 1.40): 1.86 ± 0.44%
% DNA in tail (HCC 1.2 cells; HCC 1.2, IQ 100.0 µM, control 2.93 ± 1.40, starred P ≤ 0.05): 7.29 ± 1.87%
% DNA in tail (HuH6 cells; HuH6, IQ 50.0 µM, control 4.01 ± 1.68): 5.91 ± 3.05%
% DNA in tail (HuH6 cells; HuH6, IQ 100.0 µM, control 4.01 ± 1.68, starred P ≤ 0.05): 10.82 ± 5.71%
% DNA in tail (HuH7 cells; HuH7, IQ 50.0 µM, control 1.29 ± 1.30): 2.16 ± 0.91%
% DNA in tail (HuH7 cells; HuH7, IQ 100.0 µM, control 1.29 ± 1.30): 1.11 ± 0.60%
% DNA in tail (HepG2 cells; HepG2, IQ 50.0 µM, control 2.16 ± 0.54): 1.32 ± 0.91%
% DNA in tail (HepG2 cells; HepG2, IQ 100.0 µM, control 2.16 ± 0.54, starred P ≤ 0.05): 5.38 ± 2.02%
% DNA in tail (JHH6 cells; JHH6, IQ 50.0 µM): 1.29 ± 1.55%
% DNA in tail (JHH6 cells; JHH6, IQ 100.0 µM): 0.93 ± 0.67%
Result of SCGE experiments (in words) (HepaRG cells): negative results
% DNA in tail (HepaRG cells; IQ 50.0 µM, control 2.34 ± 2.92): 2.39 ± 4.10%
% DNA in tail (HepaRG cells; IQ 100.0 µM, control 2.34 ± 2.92): 2.38 ± 1.97%
IARC classification [3]: Causes guanine adducts, clear evidence for carcinogenicity in experiments with rodents IARC: Group 2A
